Structures can show the parent of a compound that is named as a salt.
target: T1, TBK1 (Homo sapiens, UniProt Q9UHD2); test: TBK1 protein kinase assay ([γ-33P]ATP, P81 filterplates); assay type: biochemical; details: 50 μM ATP; read-out: Potency (TBK1 IC50 potency score)
T1 construct: All protein kinases were of human origin and encoded full length proteins, unless indicated otherwise; His6; made in house; host or cells: insect Sf21 cells
T1 sequence (Q9UHD2 1-729): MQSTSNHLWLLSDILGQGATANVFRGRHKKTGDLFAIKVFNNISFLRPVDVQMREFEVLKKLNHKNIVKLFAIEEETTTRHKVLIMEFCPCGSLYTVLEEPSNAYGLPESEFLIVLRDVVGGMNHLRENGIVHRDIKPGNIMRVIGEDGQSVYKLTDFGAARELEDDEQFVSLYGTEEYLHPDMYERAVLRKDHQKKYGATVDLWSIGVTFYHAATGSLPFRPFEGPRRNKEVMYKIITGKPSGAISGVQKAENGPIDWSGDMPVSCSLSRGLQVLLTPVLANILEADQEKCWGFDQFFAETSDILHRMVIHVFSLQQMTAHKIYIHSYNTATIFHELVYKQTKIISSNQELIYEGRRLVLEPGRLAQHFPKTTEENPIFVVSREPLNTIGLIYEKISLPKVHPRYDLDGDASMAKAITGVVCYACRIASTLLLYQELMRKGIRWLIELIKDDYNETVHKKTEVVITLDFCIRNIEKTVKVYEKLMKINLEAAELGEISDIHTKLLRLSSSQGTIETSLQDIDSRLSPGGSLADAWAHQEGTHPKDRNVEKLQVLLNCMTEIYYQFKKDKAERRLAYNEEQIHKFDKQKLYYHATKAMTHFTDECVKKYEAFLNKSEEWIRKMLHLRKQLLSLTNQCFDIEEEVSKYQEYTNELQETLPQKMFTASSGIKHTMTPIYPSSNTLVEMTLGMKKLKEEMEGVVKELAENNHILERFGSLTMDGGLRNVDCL
Excerpt: All protein kinases were of human origin and encoded full length proteins, unless indicated otherwise. They were either expressed as glutathione S-transferase (GST) fusion proteins in Escherichia Coli or as hexahistidine (His6)-tagged proteins in insect Sf21 cells. GST fusion proteins were purified by affinity chromatography on glutathione-Sepharose, and His6-tagged proteins on nickel/nitriloacetate-agarose. The procedures for expressing some of the protein kinases used herein have been detailed previously.^8,9 The following sections outline the DNA vectors synthesised and the procedures used to express and purifying protein kinases that have not been reported previously.
The following kinases were expressed in Sf21 cells: Aurora B and Aurora C, extra-cellular signal-regulated kinase 8 (ERK8), microtubule affinity regulating kinase 3 (MARK3), protein kinase Bα[118-480][S473D], protein kinase Bβ (PKBβ[120-481][S474D], 3-phosphoinositide-dependent protein kinase-1 [52-556]
Assays were performed for 30 min using Multidrop Micro reagent dispensers (Thermo Electron Corporation, Waltham, Mass. 02454, USA) in a 96-well format. The concentration of magnesium acetate in the assays was 10 mM and the [γ-33P] ATP (800 cpm/pmol) was used at 5, 20 or 50 μM as indicated, in order to be at or below the Km for ATP for each enzyme. Protein kinases assayed at 5 μM ATP were: —ERK1, ERK8, PKBα, MARK3, Aurora C. Protein kinases assayed at 20 μM ATP were: —JNK1, PDK1, CHK1, CHK2, CDK2 and Aurora B. Protein kinases assayed at 50 μM ATP were: —MNK2, IKKepsilon and TBK1.
The assays were initiated with MgATP, stopped by addition of 5 μl of 0.5 M orthophosphoric acid and spotted on to P81 filterplates using a unifilter harvester (PerkinElmer, Boston, Mass. 02118, USA). The IC50 values of inhibitors were determined after carrying out assays at 10 different concentrations of each compound.
ERK1 and ERK8 were both assayed against myelin basic protein (MBP, 0.33 mg/ml). MARK3 was assayed against the peptide […] (300 μM), MNK2 against the eIF4E protein (0.5 mg/ml). PKBβ was assayed against the peptide […] (30 μM). TBK1 were assayed against ([…]) (300 μM). The substrates used for other protein kinases were described previously.^8,9
Unless stated otherwise, enzymes were diluted in 50 mM Tris/HCl pH 7.5, 0.1 mM EGTA, 1 mg/ml BSA, 0.1% (v/v) 2-mercaptoethanol and assayed in 50 mM Tris/HCl pH 7.5, 0.1 mM EGTA, 0.1% (v/v) 2-mercaptoethanol.

First: O=C(NCCCNc1nc(Nc2cccc(F)c2)ncc1C1CC1)C1CCCC1 [Example 22, Cyclopentanecarboxylic acid {3-[5-cyclopropyl-2-(3-fluoro-phenylamino)pyrimidin-4-ylamino]-propyl}-amide]
Second: O=C(NCCCNc1nc(Nc2cccc(F)c2)ncc1C1CC1)C1CC1 [Example 25, Cyclopropanecarboxylic acid {3-[5-cyclopropyl-2-(3-fluoro-phenylamino)-pyrimidin-4-ylamino]-propyl}-amide]
The IC50 of the first is lower: under 100 nM for the first, 100 to 1000 nM for the second. The first is the more potent here.

Compared with O=C(CC1CC1)NCCCNc1nc(Nc2cccc(F)c2)ncc1C1CC1 [Example 24, 2-Cyclopropyl-N-{3-[5-cyclopropyl-2-(3-fluoro-phenylamino)-pyrimidin-4-ylamino]-propyl}-acetamide], O=C(NCCCNc1nc(Nc2cccc(F)c2)ncc1C1CC1)c1cccs1 [Example 26, Thiophene-2-carboxylic acid {3-[5-cyclopropyl-2-(3-fluoro-phenylamino)-pyrimidin-4-ylamino]-propyl}-amide] is higher in IC50: under 100 nM for the first, 100 to 1000 nM for the second. The first is the more potent here.

O=C(NCCCNc1nc(Nc2cccc(C(F)(F)F)c2)ncc1C1CC1)c1cccs1 [Example 27, Thiophene-2-carboxylic acid {3-[5-cyclopropyl-2-(3-trifluoromethyl-phenylamino)-pyrimidin-4-ylamino]-propyl}-amide] and O=C(NCCCNc1nc(Nc2cccc(OC(F)(F)F)c2)ncc1C1CC1)c1cccs1 [Example 35, Thiophene-2-carboxylic acid {3-[5-cyclopropyl-2-(3-trifluoromethoxy-phenylamino)-pyrimidin-4-ylamino]-propyl}-amide trifluoroacetic acid salt] fall in the same range of IC50: 100 to 1000 nM for the first, 100 to 1000 nM for the second.

First: CC(=O)Nc1ccc(Nc2ncc(C3CC3)c(NCCCNC(=O)c3cccs3)n2)cc1 [Example 28, Thiophene-2-carboxylic acid {3-[2-(4-acetylamino-phenylamino)-5-cyclopropyl-pyrimidin-4-ylamino]-propyl}-amide. Hydrochloride salt]
Second: COC(=O)c1cccc(Nc2ncc(C3CC3)c(NCCCNC(=O)c3cccs3)n2)c1 [Example 33, 3-(5-Cyclopropyl-4-{3-[(thiophene-2-carbonyl)-amino]-propylamino}-pyrimidin-2-ylamino)-benzoic acid methyl ester trifluoroacetic acid salt]
The IC50 of the first is lower: under 100 nM for the first, 100 to 1000 nM for the second. The first is the more potent here.

Compared with O=C(NCCCNc1nc(Nc2cccc(O)c2)ncc1C1CC1)c1cccs1 [Example 29, Thiophene-2-carboxylic acid {3-[5-cyclopropyl-2-(3-hydroxy-phenylamino)-pyrimidin-4-ylamino]-propyl}-amide Trifluoroacetic acid salt], NC(=O)c1cccc(Nc2ncc(C3CC3)c(NCCCNC(=O)c3cccs3)n2)c1 [Example 36, Thiophene-2-carboxylic acid {3-[2-(3-carbamoyl-phenylamino)-5-cyclopropyl-pyrimidin-4-ylamino]-propyl}-amide trifluoroacetic acid salt] is lower in IC50: 1000 to 10000 nM for the first, 100 to 1000 nM for the second.

First: Cc1ccc(Nc2ncc(C3CC3)c(NCCCNC(=O)c3cccs3)n2)cn1 [Example 30, Thiophene-2-carboxylic acid {3-[5-cyclopropyl-2-(6-methyl-pyridin-3-ylamino)-pyrimidin-4-ylamino]-propyl}-amide]
Second: O=C(NCCCNc1nc(Nc2ccc3ncsc3c2)ncc1C1CC1)c1cccs1 [Example 37, Thiophene-2-carboxylic acid {3-[2-(benzothiazol-6-ylamino)-5-cyclopropyl-pyrimidin-4-ylamino]-propyl}-amide. Hydrochloride salt]
The IC50 of the first is higher: 1000 to 10000 nM for the first, under 100 nM for the second.

First: CC(C)(C)OC(=O)Nc1cccc(Nc2ncc(C3CC3)c(NCCCNC(=O)c3cccs3)n2)c1 [Example 31, [3-(5-Cyclopropyl-4-{3-[(thiophene-2-carbonyl)-amino]-propylamino}-pyrimidin-2-ylamino)-phenyl]-carbamic acid tert-butyl ester]
Second: O=C(O)c1cccc(Nc2ncc(C3CC3)c(NCCCNC(=O)c3cccs3)n2)c1 [Example 34, 3-(5-Cyclopropyl-4-{3-[(thiophene-2-carbonyl)-amino]-propylamino}-pyrimidin-2-ylamino)-benzoic acid trifluoroacetic acid salt]
The IC50 of the first is higher: 1000 to 10000 nM for the first, 100 to 1000 nM for the second. The second is the more potent here.

Compared with CS(=O)(=O)Nc1cccc(Nc2ncc(C3CC3)c(NCCCNC(=O)c3cccs3)n2)c1 [Example 32, Thiophene-2-carboxylic acid {3-[5-cyclopropyl-2-(3-methanesulfonylamino-phenylamino)-pyrimidin-4-ylamino]-propyl}-amide trifluoroacetic acid salt], CN(C)c1cccc(Nc2ncc(C3CC3)c(NCCCNC(=O)c3cccs3)n2)c1 [Example 44, Thiophene-2-carboxylic acid {3-[5-cyclopropyl-2-(3-dimethylamino-phenylamino)-pyrimidin-4-ylamino]-propyl}-amide trifluoroacetic acid salt] is higher in IC50: under 100 nM for the first, 100 to 1000 nM for the second. The first is the more potent here.

O=C1CCCN1CCCNc1nc(Nc2cccc(F)c2)ncc1C1CC1 [Example 38, 1-{3-[5-Cyclopropyl-2-(3-fluoro-phenylamino)-pyrimidin-4-ylamino]-propyl}-pyrrolidin-2-one] and CC(=O)Nc1cccc(Nc2ncc(C3CC3)c(NCCCN3CCCC3=O)n2)c1 [Example 39, N-(3-{5-Cyclopropyl-4-[3-(2-oxo-pyrrolidin-1-yl)-propylamino]-pyrimidin-2-ylamino}-phenyl)-acetamide trifluoroacetate salt] fall in the same range of IC50: 100 to 1000 nM for the first, 100 to 1000 nM for the second.

O=C(NCCCNc1nc(Nc2ccc3ncsc3c2)ncc1C1CC1)C1CCC1 [Example 40, Cyclobutanecarboxylic acid {3-[2-(benzothiazol-6-ylamino)-5-cyclopropyl-pyrimidin-4-ylamino]-propyl}-amide. Hydrochloride salt] and O=C(NCCCNc1nc(Nc2cccc(Cn3ccnc3)c2)ncc1C1CC1)C1CCC1 [Example 42, Cyclobutanecarboxylic acid {3-[5-cyclopropyl-2-(3-imidazol-1-ylmethyl-phenylamino)-pyrimidin-4-ylamino]-propyl}-amide] cannot be ordered by IC50: under 100 nM for the first, under 100 nM for the second.

O=C(NCCCNc1nc(Nc2cccc(N3CCOCC3)c2)ncc1C1CC1)C1CCC1 [Example 41, Cyclobutanecarboxylic acid {3-[5-cyclopropyl-2-(3-morpholin-4-yl-phenylamino)-pyrimidin-4-ylamino]-propyl}-amide] and CN1CCN(c2ccc(Nc3ncc(C4CC4)c(NCCCNC(=O)C4CCC4)n3)cn2)CC1 [Example 43, Cyclobutanecarboxylic acid (3-{5-cyclopropyl-2-[6-(4-methyl-piperazin-1-yl)-pyridin-3-ylamino]-pyrimidin-4-ylamino}-propyl)-amide] cannot be ordered by IC50: under 100 nM for the first, under 100 nM for the second.

Compound CN1CCN(C(=O)c2cccc(Nc3ncc(C4CC4)c(NCCCNC(=O)c4cccs4)n3)c2)CC1 [Example 45, Thiophene-2-carboxylic acid (3-{5-cyclopropyl-2-[3-(4-methyl-piperazine-1-carbonyl)-phenylamino]-pyrimidin-4-ylamino}-propyl)-amide] has an IC50 of 100 to 1000 nM.

From patent US20100056524A1, “Compound” (priority 2008, published 2010)
